Data taken from publication PMC11462627, “SAL0114: a novel deuterated dextromethorphan-bupropion combination with improved antidepressant efficacy and safety profile” (Frontiers in Pharmacology, 2024).

Assays:
[1] = biological target: T1, norepinephrine transporter (Homo sapiens, UniProt P23975); experiment: Norepinephrine transporter (NET) radioligand binding (3H-Nisoxetine); details: 3H-Nisoxetine competition, mean, n = 2; read-out: Ki, norepinephrine transporter
T1 construct: purchased PerkinElmer, Inc RBHNETM400UA
Procedure: The experiments were carried out in the Pharmaron laboratory, and the methods were referenced from previous studies with modifications ([Bylund and Toews, 1993]; [Galli et al., 1995]). Competitive binding of the compound and ^3H-Nisoxetine to NETs was assessed using a radioligand binding method. The ability of the compound to competitively bind to NET (Ki) was determined by detecting the signal value of the radioligand bound to the transporter using a Microbeta instrument (2450, Perkin Elmer, Massachusetts, United States).

ICR mice = experiment: Forced swim test; format: in vivo; details: FST, oral, 1 h after administration, deDM 10 and 18 mg/kg, BUP 50 mg/kg, deDM + BUP 10 + 50 and 18 + 50 mg/kg
Procedure: The mouse forced swim test was performed in a way similar to that published previously by Nguyen et al. ([Nguyen et al., 2017]) with some modifications. […] All compounds were administered orally via gavage at a volume of 10 mL/kg body weight, with the vehicle group receiving an equivalent volume of saline. 1 h after administration, mice underwent the forced swim test (FST), a widely used behavioral assay for evaluating antidepressant-like effects. Each mouse was individually placed in a transparent cylindrical tank filled with water (depth: 18 cm, temperature: 25°C ± 1°C) for a 6-min test session. The initial 2 min served as the acclimatization period and was not scored. Floating time during the subsequent 4 min was measured using ANY-Maze Version 4.63 video tracking software (Stoelting Co., Illinois, United States). Floating was defined as the minimum movement required to keep the animal’s head above water. Floating time (%) = floatting time(s)/240 s. The ANY-Maze software parameters were set as follows: acclimatization period = 120 s, test duration = 240 s, minimum immobility time = 2 s, and immobility sensitivity = 75%. To maintain consistent conditions, water was changed between the animals. […]

nAchR α3β4 = biological target: T2, nAchR α3β4 (Homo sapiens, UniProt P30926+P32297); experiment: nAchR α3β4 radioligand binding (125I-epibatidine, recombinant CHO-K1 cells); details: 125I-epibatidine competition, human recombinant CHO-K1 cells, mean, n = 2; read-out: Ki, α3β4 nicotinic acetylcholine receptors
T2 construct: host or cells: CHO-K1
Procedure: The experiments were carried out in the Eurofins Discovery laboratory, and the methods were referenced from previous studies with modifications ([Michelmore et al., 2002]; [Zaveri et al., 2010]). The competitive binding of the samples and ^125I-epibatidine to the nAchR α3β4 in human recombinant CHO-K1 cells was assessed using a radioligand binding method. The ability of the compound to competitively bind to nAchR α3β4 (Ki) was determined by detecting the signal value of the radioligand bound to the receptor.

[2] = Pharmacokinetics in male SD rat after oral administration; format: in vivo; details: DM or deDM, male SD rat, oral, 50 mg/kg, mean, n=3
Text: Results expressed as mean, n=3 per group

C57BL/6J mice = experiment: Ammonia-induced cough mouse model; format: in vivo; details: oral; for cough inhibition rate: 0.5 h post-administration
Procedure: Antitussive effects were investigated using a classical mouse cough model induced by ammonia liquor, with some modifications ([Jiang et al., 2014]; [Adejayan et al., 2019]). An ammonia-induced cough model in male C57BL/6J mice was used to evaluate the antitussive effects using a two-step approach. The initial screening phase aimed to identify the mice with consistent and pronounced cough responses. Individual mice were exposed to 0.2 mL of 13% ammonium hydroxide solution in 500 mL glass vials. A trained observer measured the latency period and recorded the number of coughs over a 3-min period post-exposure. […] Following a 24-h recovery period, 70 eligible mice were randomly allocated to seven treatment groups (n = 10 per group) for the compound evaluation phase. […] All compounds were administered orally at a volume of 10 mL/kg. At 0.5 h post-administration, each mouse was re-exposed to 0.2 mL of 13% ammonia in a 500 mL glass jar for 1 min. Subsequently, the trained observer recorded the number of coughs over a 3-min period following removal from the jar. […] All experimental procedures were conducted in strict compliance with guidelines approved by the Institutional Animal Care and Use Committee of Shenzhen Salubris Pharmaceuticals Co., Ltd., ensuring adherence to ethical standards in animal research. A P value of less than 0.05 was considered statistically significant for comparisons between groups.

NMDA receptor = details: read-out: Ki, NMDA receptor; 3H-MK801 competition, rat brain membranes, mean, n = 4
Procedure: Membrane preparation was performed as previously described ([Werling et al., 2007]). Briefly, the brains of male Sprague-Dawley rats were dissected for tissue collection. The tissue was then homogenized in ice-cold extraction solution and centrifuged at 40,000 × g for 10 min (minute). The supernatant was discarded, the precipitate was resuspended in extraction solution, and the above steps were repeated two times. Finally, the precipitate was resuspended in a 10-fold volume of resuspension solution and stored at −80°C. Protein concentration was determined using a PierceTM BCA Protein Assay Kit. The competitive binding of the compound and ^3H-MK801 to the NMDA receptor was evaluated utilizing the filtration binding method. This method involves washing unbound radioligands and subsequently quantifying the signal values of the radioligands bound to the NMDA receptor using a Microbeta instrument (catalog number: 2450, Perkin Elmer, Massachusetts, United States).

T2 sequence (P32297 32-505): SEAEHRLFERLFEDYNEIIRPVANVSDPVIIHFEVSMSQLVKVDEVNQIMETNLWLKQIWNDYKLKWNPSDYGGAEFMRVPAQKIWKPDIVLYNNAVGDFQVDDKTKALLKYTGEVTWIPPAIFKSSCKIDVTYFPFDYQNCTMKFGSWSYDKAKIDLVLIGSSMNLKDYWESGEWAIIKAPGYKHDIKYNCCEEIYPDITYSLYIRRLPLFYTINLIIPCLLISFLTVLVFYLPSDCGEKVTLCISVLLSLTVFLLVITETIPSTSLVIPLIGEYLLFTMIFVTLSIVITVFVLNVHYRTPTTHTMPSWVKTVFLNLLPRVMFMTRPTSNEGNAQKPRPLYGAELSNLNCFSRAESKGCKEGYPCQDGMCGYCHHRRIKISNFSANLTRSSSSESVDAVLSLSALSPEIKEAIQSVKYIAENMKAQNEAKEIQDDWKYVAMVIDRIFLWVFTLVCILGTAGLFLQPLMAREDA
T2 sequence (P30926 22-498): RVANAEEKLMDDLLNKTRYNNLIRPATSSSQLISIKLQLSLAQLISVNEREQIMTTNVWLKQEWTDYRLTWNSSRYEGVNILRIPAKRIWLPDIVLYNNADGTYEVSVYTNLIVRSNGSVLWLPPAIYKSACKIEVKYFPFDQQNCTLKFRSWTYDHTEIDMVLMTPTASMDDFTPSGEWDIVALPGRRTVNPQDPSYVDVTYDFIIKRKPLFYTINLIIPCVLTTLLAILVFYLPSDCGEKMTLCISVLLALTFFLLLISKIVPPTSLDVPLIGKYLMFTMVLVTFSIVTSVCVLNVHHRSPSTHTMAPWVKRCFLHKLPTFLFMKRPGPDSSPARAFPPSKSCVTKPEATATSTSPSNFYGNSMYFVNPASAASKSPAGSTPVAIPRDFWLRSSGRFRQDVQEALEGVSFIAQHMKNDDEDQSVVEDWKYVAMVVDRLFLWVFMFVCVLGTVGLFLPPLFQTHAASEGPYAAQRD
T1 sequence (P23975 whole entry): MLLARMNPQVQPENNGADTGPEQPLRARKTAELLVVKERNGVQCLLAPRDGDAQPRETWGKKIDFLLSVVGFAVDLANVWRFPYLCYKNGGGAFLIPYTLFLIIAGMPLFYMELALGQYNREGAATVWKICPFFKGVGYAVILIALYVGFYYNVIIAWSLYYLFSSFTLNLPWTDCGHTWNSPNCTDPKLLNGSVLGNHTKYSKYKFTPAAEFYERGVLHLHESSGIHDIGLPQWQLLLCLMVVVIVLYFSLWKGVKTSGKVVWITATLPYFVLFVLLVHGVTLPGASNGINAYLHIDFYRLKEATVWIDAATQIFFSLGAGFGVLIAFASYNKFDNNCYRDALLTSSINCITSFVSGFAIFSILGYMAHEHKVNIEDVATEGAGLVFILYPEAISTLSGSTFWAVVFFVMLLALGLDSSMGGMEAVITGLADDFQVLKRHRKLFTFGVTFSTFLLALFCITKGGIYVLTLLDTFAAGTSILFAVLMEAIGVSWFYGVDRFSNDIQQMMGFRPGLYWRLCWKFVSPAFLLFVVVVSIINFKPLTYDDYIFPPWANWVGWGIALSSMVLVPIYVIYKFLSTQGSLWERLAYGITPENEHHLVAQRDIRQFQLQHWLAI

deuterated dextromethorphan [deDM]
Ki [1]: 17.1 µM
floating time compared to the vehicle group (ICR mice): did not significantly reduce the floating time
Ki (nAchR α3β4): 15.8 µM
AUC0-last [2]: 374 ng·h/mL
Cmax [2]: 84 ng/mL
cough inhibition compared with the vehicle group (C57BL/6J mice; deDM 5 and 10 mg/kg, BUP 40 mg/kg, deDM + BUP 5 + 40 and 10 + 40 mg/kg): neither deDM nor BUP significantly inhibited cough
cough inhibition rate (C57BL/6J mice; high dose 10 mg/kg): 9.1%
cough inhibition rate (C57BL/6J mice; low dose 5 mg/kg): 8.3%
Ki (NMDA receptor): 1.9 µM
